Reference: patent US12697366B2, “Thermogenic compositions and methods” (Ohio State Innovation Foundation, priority 2016, dated 2026)

How the values were obtained:
[1] = tested on: 3T3-L1 preadipocytes; experiment: FD-glucose uptake in 3T3-L1 preadipocytes; format: cell-based, mouse; conditions: 30 mins; insulin 10 μg/ml, EREG 50 ng/ml, forskolin 4 μg/ml
Description: Non-differentiated, 90% confluent 3T3-L1 cells were starved with glucose-deprived medium for 40 min. Then cells were treated in the presence and absence of different concentrations of nanoscaffold #2 and bovine insulin (200 μg/mL), all of reagents dissolved in the same glucose-deprived medium but containing fluorescent-D (FD)-glucose for 80 min. Thereafter, the FD glucose uptake was measured according to manufacturer's instructions (Cayman Chemical, USA, cat #600471). […] Non-differentiated, 90% confluent 3T3-L1 cells treated in the presence and absence of different concentrations of nanoscaffold #2 and bovine insulin (10 μg/mL) or mouse epiregulin (EREG, 0.05 μg/mL) and incubated for 24 h. Then cells were starved with glucose-deprived medium for 40 min and, then incubated with fluorescent-D (FD)-glucose for 80 min. Thereafter, the FD glucose uptake was measured according to manufacturer's instructions (Cayman Chemical, USA, cat #600471). Data are shown as percent of uptake in the presence of insulin (100%).
Non-differentiated, 90% confluent 3T3-L1 cells treated in the presence of bovine insulin (10 μg/mL), mouse epiregulin (EREG, 0.05 μg/mL), or their combinations and incubated for 24 h. Then cells were starved with glucose-deprived medium for 40 min and, then incubated with fluorescent-D (FD)-glucose for 80 min. Thereafter, the FD glucose uptake was measured according to manufacturer's instructions (Cayman Chemical, USA, cat #600471).
Non-differentiated, 90% confluent 3T3-L1 cells were starved with glucose-deprived medium for 50 min. Then cells were treated in the presence and absence of different concentrations of mouse recombinant IGFBP4 with and without nanoscaffold #2 and human insulin (10 μg/mL). All of reagents were dissolved in the same glucose-deprived medium but containing fluorescent-D (FD)-glucose for 90 min. Thereafter, the FD glucose uptake was measured according to manufacturer's instructions (Cayman Chemical, USA, cat #600471).
Glucose uptake assay was performed using glucose uptake cell-based assay kit (Cayman Chemical, Ann Arbor, MI). 3T3-L1 or human preadipocytes were cultured at a density of 5×10^4 per well into a 96-well plate (n=7) in high glucose media and grown overnight. Old cell culture medium was removed the next day and washed with PBS to remove residual glucose. Supplied 2-deoxy-2-[(7-nitro-2,1,3-benzoxadiazol-4-yl)amino]-D-glucose) (2-NBDG) was diluted to 150 μg/mL in DMEM medium without glucose, phenol red, L-glutamine, sodium pyruvate, and HEPES (Life technologies, Grand Island, New York). 100 μL of 2-NBDG glucose free medium with or without recombinant EREG and other treatments was added to the plated cells. After incubating at 37° C. for 30 minutes, cells were washed gently two times with 200 μL of glucose assay buffer. 100 μL of the assay buffer was added to each well and measured for fluorescence at an excitation/emission of 485/535 nm.
Fluorescence glucose uptake (FD-glucose assay) was performed as described PMID: 32065973, using insulin, 1.7 μM and different AACs at concentration 0.1 μM.
FD-glucose uptake in mouse 3T3-L1 preadipocytes (n=8 per treatment) treated with vehicle (Veh; PBS, open bar) or hINS (1.7 μM), mouse leptin (mLep; 12.5 nM, hatched bar), or AAC2 (0.1 μM black bar) in the presence and absence of GLUT1 inhibitor (BAY-876; 10 nM in DMSO). Cells were pre-treated with or without BAY-876 for 40 min and then FD glucose and treatment reagents were added for additional 80 min of incubation. Data (%) was normalized to FD-glucose uptake in control (Veh) 3T3-L1 cells without inhibitor (100%). Student's independent t-test.

[2] = tested on: 3T3-L1 adipocytes; experiment: LTA axon guidance gene expression in 3T3-L1 adipocytes (NanoString mouse innervation panel); format: cell-based; conditions: 24 hrs; for Efna5 and Epha4 expression: TTNPB 50 nM or BMS493 100 nM
Description: FIG. 5A to 5I show retinoids regulate the LTA axon guiding secretome via ephrin A5. FIG. 5A: DRG neurons were cultured in DRG culture medium with secretome from Aldh1a1^−/− adipocytes (1/1, v/v) that were treated with or without RA (100 nM). RA was added to Aldh1a1^−/− differentiation medium (Day 0, 2, 5). To prepare this secretome, medium was collected for last 24 hours. Representative images were selected from three independent experiments. Average neurite growth indices were measured by XTI microscopy in DRG neurons in DRG culture medium containing veh (white bar), NGF (vertical lined bar), or Aldh1a1^−/− secretome treated without (black bar) or with RA (hatched bar). An asterisk indicates P<0.05; Mann-Whitney U test. FIG. 5B: 3T3-L1 adipocytes (n=3) were cultured in differentiation medium for 4 days. At day 5, medium was replaced by UV-treated 1% FBS-contained DMEM with and without Rald (30 nM). 24 hrs post stimulation, cells were harvested for mRNA. The gene expression was measured by the customized NanoString mouse innervation panel. […] Gene expression was measured by the NanoString mouse innervation panel. […] Protein levels of ephrin-A5 ligand (EFNA5) in medium EFNA5 and β-actin in cell lysates were analyzed by Western blot at Day 0, 2, 4, and 6. FIG. 5F: Plasma from WT and Aldh1a1^−/− mice (Table 1, Study 4) was measured by EFNA5 ELISA (n=5 per group) Table 1, Study 4. […] FIG. 5H: Tyrosine hydroxylase (TH) protein levels was analyzed in whole subcutaneous (Western blot insert) and iAb fat pads from mice injected with PBS (n=3) or EFNA5 (n=4, Table 1, Study 5) by Western blot. […] FIG. 5I: Heat (metabolic rate) was measured in PBS- and EFNA5-injected mice from Study 4 after 4° C. exposure by an open circuit indirect calorimetry treadmill (basal metabolic rate for 42 h is shown in FIG. 9C). […]
NanoString's nCounter analysis (NanoString Technologies) system performed direct detection of target molecules from a single sample using color-coded molecular barcodes, giving a digital quantification of the number of target molecules as described before (Shen et al., 2015, PMID: 25620076). […]

[3] = tested on: iAb (omental) fat explants; experiment: LEP release from iAb (omental) fat explants of an obese patient (ELISA); format: cell-based, human; conditions: EGFR-I, MAPK-I, PI3K-I
Description: FIGS. 14A to 14N show EREG induces expression of thermogenic and PPARα-target genes, suppresses inflammatory genes, and stimulates leptin secretion. FIGS. 14A to 14H and 14L: Markers for thermogenesis, adipogenesis, and inflammatory genes were analyzed using homogenates from whole iAb fat pads isolated from Veh- (white bars) and EREG-treated (black bars) DIO mice (Study 3). Gene expression was quantified using a customized NanoString panel. Data represent mean±SD, n.s.,—non-significant. FIG. 14I: LEP was measured in plasma in the same mice by ELISA. Data (mean±SD) are shown as percent to control (Veh, 100%) and is indicated as a dashed line. FIG. 14J: LEP release after stimulation with different concentrations of recombinant human EREGs was measured in explants of iAb (omental) tissue obtained from an obese insulin resistant patient. FIG. 14K: LEP release after stimulation of explants from same donor with and without EREG (50 ng/mL) in the presence and absence of insulin (Ins, 10 μg/mL), MAPK-I, EGFR-I, PI3K-I. Inhibitors concentrations were described in FIG. 1. FIG. 14M: LEP release after stimulation of iAb fat explants (2 h) from WT mice with different concentrations of recombinant mouse EREG. Experiment was repeated in three different WT mice. Data (mean±SD) are shown as percent to control (Veh, 100%). FIG. 14N: LEP release following stimulation of iAb fat explants (2 h) from WT mice with inhibitors of EGFR (10 μM) and MAPK (10 μM) in the presence or absence of EREG (50 ng/ml). Data (mean±SD) are shown as percent to control (Veh, 100%).
Abdominal fat tissue obtained from an obese patient was excised into 35 mg sections for stimulation with EREG. Explants were stimulated with EREG in DMEM containing 1% FBS for 2 h. Media was collected after 2 h, lyophilized and reconstituted in 120 μL deionized water for leptin detection using ELISA kit (Alpco, Salem, NH).

[4] = tested on: PPARα-LBD; experiment: PPARα-LBD luciferase reporter in transiently transfected HEK293 cells; format: cell-based, human; conditions: EREG 50 ng/mL; EGFR-I 10 μM, MAPK-I 10 μM, HSL-I 10 μM, SRC-I 1 μM, PI3K-I 100 nM
Description: FIGS. 11A to 11I show adipokine Ereg is bilaterally associated with obesity and thermogenesis and activates PPARα. […] Microarray gene analysis was performed using Affymetrix microarray. FIG. 11B: Ereg expression was measured in non-differentiated and differentiated (day 5) 3T3-L1 adipocytes (Mann-Whitney test) using a customized NanoString mouse panel. FIG. 11C: Ereg expression was measured in differentiated (day 5) 3T3-L1 and Aldh1a1^−/− adipocytes by Taqman and normalized to TATA box protein (TBP). FIG. 11D: Plasma EREG concentrations were measured in mice from Study 1 by western blot. […] FIG. 11E: Plasma EREG concentrations were measured and quantified in iAb of WT and ob/ob mice from Study 2 by western blot (n=5 per each group). […] FIG. 11F: EREG was measured in iAb, subcutaneous and brown fat by western blot. Fat pads were dissected from WT mice on regular chow (Study 1). FIG. 11G: Ucp2 and Ucp1 expression was measured in differentiated 3T3-L1 adipocytes (day 5) stimulated with vehicle (PBS) or recombinant EREG (50 ng/mL) added in the differentiation medium I and II. Expression level were measured by Taqman and normalized by TBP. FIGS. 11H and 11I: HEK293 cells were transiently transfected with PPARα-LBD, UASTK-luciferase, and renilla. […] Data represents % PPARα-LBD activation. Asterisks indicate significant difference (p<0.05) compared to vehicle control, #, indicates statistical difference between PPARα-LBD activation by EREG alone and in the presence of inhibitors. Data represent mean±SD. The Mann-Whitney test was used throughout these studies for group comparison.
HEK293 cells ([…] cells, 24-well plates) were used for transient transfection experiments. Cells were transfected with human PPARα-LBD construct, yeast UASTK luciferase reporter (SwitchGear Genomics, Menlo Park, CA), using Fugene (Roche Applied Science, Indianapolis, IN). Transfections were carried out in OptiMeM (Invitrogen, Carlsbad, CA) medium for 12 hours as described previously. Luciferase was measured using Promega assay according to manufacturer's instructions

C=C[C@@]1(C)CC(=O)[C@]2(O)[C@@]3(C)[C@@H](O)CCC(C)(C)[C@@H]3[C@H](O)[C@H](OC(C)=O)[C@@]2(C)O1 [forskolin, reference compound]
glucose uptake compared to non-stimulated 3T3-L1 preadipocytes [1]: 245%

CC1=C(/C=C/C(C)=C/C=C/C(C)=C/C=O)C(C)(C)CCC1 [retinaldehyde]
expression of molecules associated with the LTA-axon guidance secretome ([2]; Rald 30 nM): significantly increased

COc1cc2ncnc(Nc3cccc(Cl)c3)c2cc1OC [EGFR inhibitor, Tyrphostin AG1478]
EREG / insulin mediated LEP release in the presence of inhibitor [3]: inhibited | EREG-dependent PPARα-LBD activation in the presence of inhibitor [4]: abolished

CC1(C)CC=C(C#Cc2ccccc2)c2cc(/C=C/c3ccc(C(=O)O)cc3)ccc21 [BMS429]
Efna5 and Epha4 expression [2]: induced

COc1nn(-c2ccc(NC(=O)OCc3ccccc3)c(C)c2)c(=O)o1 [HSL inhibitor, CAY10499]
EREG-dependent PPARα-LBD activation in the presence of inhibitor [4]: abolished

C/C(=C\c1ccc(C(=O)O)cc1)c1ccc2c(c1)C(C)(C)CCC2(C)C [TTNPB]
Efna5 and Epha4 expression [2]: suppressed

N#CC(=C(/N)Sc1ccccc1N)/C(C#N)=C(\N)Sc1ccccc1N [MAPK inhibitor, U0126]
EREG / insulin mediated LEP release in the presence of inhibitor [3]: inhibited | EREG-dependent PPARα-LBD activation in the presence of inhibitor [4]: abolished

COc1ccc(Cl)c(Nc2ncnc3cc(OCC4CCN(C)CC4)c(OC)cc23)c1 [SRC inhibitor, AZM475271]
EREG-dependent PPARα-LBD activation in the presence of inhibitor [4]: now effect
